Source: patent US20240150321A1, “PYRAZOLYLSULFONAMIDE COMPOUNDS AND THEIR USE IN THERAPY” (HOTSPOT THERAPEUTICS, INC., priority 2022, published 2024)
Read-outs that look alike come from different tables or passages of the source.

What was measured:
Avi-tagged FL MALT-1 = Avi-tagged FL MALT-1 (Homo sapiens (Human), UniProt Q9UDY8); assay: MALT-1 Fluorogenic Peptide Cleavage Assay (MALT1 inhibition assay); type: biochemical; settings: Ac-LRSR-AMC peptide substrate, 30 min pre-incubation, 90 min reaction at room temperature
Method in brief: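 Full-length Avi-tagged human MALT-1 (40 nM working stock) pre-incubated 30 min at RT with compound in 25 mM HEPES pH 6.89, 660 mM sodium citrate, 1 mM TCEP, […], 0.05% CHAPS, 2% DMSO. Ac-LRSR-AMC added at Km (50 μM working stock) or 10×Km (280 μM working stock); 90 min at RT, AMC fluorescence (ex 342/em 441 nm), IC50 from % inhibition curves.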

[1] = test system: NF-kB reporter in Jurkat cells; assay: NF-kB reporter assay in Jurkat cells stimulated with aCD3/aCD28/PMA; type: cell-based; settings: Homo sapiens, read-out: NF-kB Reporter Assay IC50
Method in brief: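 Jurkat cells (25,000/well, serum-free RPMI) were pre-incubated 1 h at 37° C with serially diluted compound, then stimulated 4 h with aCD3/aCD28/PMA at final […]. NF-kB reporter activity was read by One-Glo luminescence; IC50 values reported.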

[2] = Jurkat cells, 1 hr compound pre-incubation, aCD3/aCD28/PMA stimulation 4 hr, One-Glo readout

Avi-tagged FL MALT-1, sequence (Q9UDY8 whole entry): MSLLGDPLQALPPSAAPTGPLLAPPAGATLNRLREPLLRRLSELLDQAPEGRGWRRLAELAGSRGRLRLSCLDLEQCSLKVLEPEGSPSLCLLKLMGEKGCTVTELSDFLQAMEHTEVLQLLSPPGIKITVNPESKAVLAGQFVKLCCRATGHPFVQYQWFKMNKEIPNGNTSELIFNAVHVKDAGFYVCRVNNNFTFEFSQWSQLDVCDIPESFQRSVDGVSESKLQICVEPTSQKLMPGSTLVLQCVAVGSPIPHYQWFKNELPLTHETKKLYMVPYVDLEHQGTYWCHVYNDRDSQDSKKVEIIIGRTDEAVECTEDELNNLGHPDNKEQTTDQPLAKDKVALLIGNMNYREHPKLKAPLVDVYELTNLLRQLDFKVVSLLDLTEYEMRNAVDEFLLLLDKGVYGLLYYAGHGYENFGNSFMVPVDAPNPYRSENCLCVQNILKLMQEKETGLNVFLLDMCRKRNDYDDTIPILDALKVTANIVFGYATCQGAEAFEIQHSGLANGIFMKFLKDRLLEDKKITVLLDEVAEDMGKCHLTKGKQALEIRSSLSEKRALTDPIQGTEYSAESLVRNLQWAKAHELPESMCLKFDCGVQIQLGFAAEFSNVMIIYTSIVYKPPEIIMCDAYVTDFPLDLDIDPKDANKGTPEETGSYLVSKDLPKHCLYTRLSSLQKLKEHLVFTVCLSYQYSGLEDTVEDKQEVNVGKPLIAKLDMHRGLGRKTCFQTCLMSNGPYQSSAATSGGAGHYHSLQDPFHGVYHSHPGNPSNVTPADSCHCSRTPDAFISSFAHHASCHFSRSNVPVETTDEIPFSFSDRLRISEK

SMILES | IC50 (Avi-tagged FL MALT-1) | IC50 [1, 2] | IC50 ([1]; Jurkat)
COc1ccc2cnn(C)c2c1NS(=O)(=O)c1cnn(-c2cc(N3CC(F)(F)C3)ccn2)c1 [Compound I-443, 1-[4-(3,3-difluoroazetidin-1-yl)pyridin-2-yl]-N-(6-methoxy-1-methylindazol-7-yl)pyrazole-4-sulfonamide] | 1 to 2.5 µM | < 0.4 µM | 
COc1ccc2cnn(C)c2c1NS(=O)(=O)c1cnn(-c2cc(N3CC(C)(F)C3)ccn2)c1 [Compound I-444, 1-(4-(3-fluoro-3-methylazetidin-1-yl)pyridin-2-yl)-N-(6-methoxy-1-methyl-1H-indazol-7-yl)-1H-pyrazole-4-sulfonamide] | > 2.5 µM | < 0.4 µM | 
COc1ccc2cnn(C)c2c1NS(=O)(=O)c1cnn(-c2cc(N3CC(OC)C3)ccn2)c1 [Compound I-445] | > 2.5 µM | < 0.4 µM | 
COC1(C)CN(c2ccnc(-n3cc(S(=O)(=O)Nc4cccc5cnn(C)c45)cn3)c2)C1 [Compound I-446, 1-[4-(3-methoxy-3-methylazetidin-1-yl)pyridin-2-yl]-N-(1-methylindazol-7-yl)pyrazole-4-sulfonamide] | > 2.5 µM | < 0.4 µM | 
Cn1ncc2cccc(NS(=O)(=O)c3cnn(-c4cnn5c4COCCC5)c3)c21 [Compound I-447, 1-(7,8-Dihydro-4H,6H-Pyrazolo[5,1-C][1,4]Oxazepin-3-yl)-N-(1-Methyl-1H-Indazol-7-yl)-1H-Pyrazole-4-Sulfonamide] | > 2.5 µM | 0.4 to 1 µM | 
Cn1ncc2cccc(NS(=O)(=O)c3cnn(-c4cc(C5(C#N)CCCC5)ccn4)c3)c21 [Compound I-448, 1-(4-(1-cyanocyclopentyl)pyridin-2-yl)-N-(1-methyl-1H-indazol-7-yl)-1H-pyrazole-4-sulfonamide] | > 2.5 µM | < 0.4 µM | 
COc1ccc2cnn(C)c2c1NS(=O)(=O)c1cnn(-c2cc(C3(C#N)CCCC3)ccn2)c1 [Compound I-449, 1-(4-(1-cyanocyclopentyl)pyridin-2-yl)-N-(6-methoxy-1-methyl-1H-indazol-7-yl)-1H-pyrazole-4-sulfonamide] | 1 to 2.5 µM | < 0.4 µM | 
Cn1ncc2cccc(NS(=O)(=O)c3cnn(-c4cc(N5CC(C)(C#N)C5)ccn4)c3)c21 [Compound I-450, 1-(4-(3-cyano-3-methylazetidin-1-yl)pyridin-2-yl)-N-(1-methyl-1H-indazol-7-yl)-1H-pyrazole-4-sulfonamide] | > 2.5 µM | < 0.4 µM | 
COc1ccc2cnn(C)c2c1NS(=O)(=O)c1cnn(-c2cc(N3CC(C)(OC)C3)ccn2)c1 [Compound I-453] | > 2.5 µM | 0.4 to 1 µM | 
COc1ccc2cnn(C)c2c1NS(=O)(=O)c1cnn(-c2cc(N3CC(C#N)C3)ccn2)c1 [Compound I-454] | > 2.5 µM | 0.4 to 1 µM | 
COc1ccc2cnn(C)c2c1NS(=O)(=O)c1cnn(-c2cnn3c2COCCC3)c1 [Compound I-455, N-(6-methoxy-1-methylindazol-7-yl)-1-{4H,6H,7H,8H-pyrazolo[3,2-c][1,4]oxazepin-3-yl}pyrazole-4-sulfonamide] | > 2.5 µM | 1 to 2.5 µM | 
Cn1ncc2cccc(NS(=O)(=O)c3cnn(-c4cc(C5(C#N)CCC5)ccn4)c3)c21 [Compound I-456] | > 2.5 µM | < 0.4 µM | 
COc1ccc2cnn(C)c2c1NS(=O)(=O)c1cnn(-c2cc(C3(C#N)CCC3)ccn2)c1 [Compound I-457, 1-(4-(1-Cyanocyclobutyl)Pyridin-2-yl)-N-(6-Methoxy-1-Methyl-1H-Indazol-7-yl)-1H-Pyrazole-4-Sulfonamide] | 0.4 to 1 µM | < 0.4 µM | 
Cn1ncc2cccc(NS(=O)(=O)c3cnn(-c4cc(N5CC(C)(C(N)=O)C5)ccn4)c3)c21 [Compound I-458] | > 2.5 µM | > 2.5 µM | 
COc1ccc2cnn(C)c2c1NS(=O)(=O)c1cnn(-c2cc(N3CC(C(N)=O)C3)ccn2)c1 [Compound I-459] | > 2.5 µM | > 2.5 µM | 
Cn1ncc2cccc(NS(=O)(=O)c3cnn(-c4cc(N5CC(C#N)C5)ccn4)c3)c21 [Compound I-460] | > 2.5 µM | < 0.4 µM | 
COc1ccc2cnn(C)c2c1NS(=O)(=O)c1cnn(-c2cc(N3CC(C)(C#N)C3)ccn2)c1 [Compound I-461] | > 2.5 µM | 0.4 to 1 µM | 

SMILES | IC50 (Avi-tagged FL MALT-1) | IC50 [1, 2] | IC50 ([1]; Jurkat)
COc1ccc2cnn(C)c2c1NS(=O)(=O)c1cnn(-c2cc([C@H](C)N3CCCCC3)ccn2)c1 [Compound I-462, (S)—N-(6-Methoxy-1-Methyl-1H-Indazol-7-yl)-1-(4-(1-(Piperidin-1-yl)Ethyl)Pyridin-2-yl)-1H-Pyrazole-4-Sulfonamide] | > 2.5 µM | < 0.4 µM | 
COc1ccc2cnn(C)c2c1NS(=O)(=O)c1cnn(-c2cc([C@@H](C)N3CCCCC3)ccn2)c1 [Compound I-463] | > 2.5 µM | 0.4 to 1 µM | 
Cn1ncc2cccc(NS(=O)(=O)c3cnn(-c4cnn5c4COCC5)c3)c21 [Compound I-464, N-(1-methylindazol-7-yl)-1-{4H,6H,7H-pyrazolo[3,2-c][1,4]oxazin-3-yl}pyrazole-4-sulfonamide] | > 2.5 µM | 0.4 to 1 µM | 
Cn1ncc2cccc(NS(=O)(=O)c3cnn(-c4cnn5c4OCCC5)c3)c21 [Compound I-465, N-(1-methylindazol-7-yl)-1-{5H,6H,7H-pyrazolo[3,2-b][1,3]oxazin-3-yl}pyrazole-4-sulfonamide] | > 2.5 µM | 1 to 2.5 µM | 
CN1CCn2ncc(-n3cc(S(=O)(=O)Nc4cccc5cnn(C)c45)cn3)c2C1 [Compound I-466, 1-{5-methyl-4H,6H,7H-pyrazolo[1,5-a]pyrazin-3-yl}-N-(1-methylindazol-7-yl)pyrazole-4-sulfonamide] | > 2.5 µM | > 2.5 µM | 
COc1ccc2cnn(C)c2c1NS(=O)(=O)c1cnn(-c2cnn3c2OCCC3)c1 [Compound I-467, N-(6-methoxy-1-methylindazol-7-yl)-1-{5H,6H,7H-pyrazolo[3,2-b] [1,3]oxazin-3-yl} pyrazole-4-sulfonamide] | > 2.5 µM | > 2.5 µM | 
COc1ccc2cnn(C)c2c1NS(=O)(=O)c1cnn(-c2cnn3c2CN(C)CC3)c1 [Compound I-468, N-(6-methoxy-1-methylindazol-7-yl)-1-{5-methyl-4H,6H,7H-pyrazolo[1,5-a]pyrazin-3-yl}pyrazole-4-sulfonamide] | > 2.5 µM | > 2.5 µM | 
Cn1ncc2cccc(NS(=O)(=O)c3cnn(-c4cc(C5(C#N)CC5)ccn4)c3)c21 [Compound I-469, 1-(4-(1-cyanocyclopropyl)pyridin-2-yl)-N-(1-methyl-1H-indazol-7-yl)-1H-pyrazole-4-sulfonamide] | > 2.5 µM |  | < 0.4 µM
COc1ccc2cnn(C)c2c1NS(=O)(=O)c1cnn(-c2cc(C3(C#N)CC3)ccn2)c1 [Compound I-470, 1-[4-(1-cyanocyclopropyl)pyridin-2-yl]-N-(6-methoxy-1-methylindazol-7-yl)pyrazole-4-sulfonamide] | 0.4 to 1 µM |  | < 0.4 µM
Cn1ncc2cccc(NS(=O)(=O)c3cnn(-c4cc(N5CC(C(N)=O)C5)ccn4)c3)c21 [Compound I-471, 1-(2-(4-(N-(1-methyl-1H-indazol-7-yl)sulfamoyl)-1H-pyrazol-1-yl)pyridin-4-yl)azetidine-3-carboxamide] | > 2.5 µM | > 2.5 µM | 
COc1ccc2cnn(C)c2c1NS(=O)(=O)c1cnn(-c2cc(N3CC(C)(C(N)=O)C3)ccn2)c1 [Compound I-472] | > 2.5 µM | 1 to 2.5 µM | 
Cn1ncc2cccc(NS(=O)(=O)c3cnn(-c4cnc5n4CCOC5)c3)c21 [Compound I-473, 1-(5,6-dihydro-8H-imidazo[2,1-c][1,4]oxazin-3-yl)-N-(1-methyl-1H-indazol-7-yl)-1H-pyrazole-4-sulfonamide] | > 2.5 µM | > 2.5 µM | 
COc1ccc2cnn(C)c2c1NS(=O)(=O)c1cnn(-c2cnn3c2COCC3)c1 [Compound I-474, N-(6-methoxy-1-methylindazol-7-yl)-1-{4H,6H,7H-pyrazolo[3,2-c][1,4]oxazin-3-yl}pyrazole-4-sulfonamide] | 1 to 2.5 µM | 0.4 to 1 µM | 
COc1ccc2cnn(C)c2c1NS(=O)(=O)c1cnn(-c2cnc3n2CCOC3)c1 [Compound I-475, 1-(5,6-dihydro-8H-imidazo[2,1-c][1,4]oxazin-3-yl)-N-(6-methoxy-1-methyl-1H-indazol-7-yl)-1H-pyrazole-4-sulfonamide] | > 2.5 µM | > 2.5 µM | 
[2H]C([2H])([2H])Oc1ccc2cnn(C([2H])([2H])[2H])c2c1NS(=O)(=O)c1cnn(-c2cc(C(F)(F)F)ccn2)c1 [Compound I-476, N-(6-(methoxy-d3)-1-(methyl-d3)-1H-indazol-7-yl)-1-(4-(trifluoromethyl)pyridin-2-yl)-1H-pyrazole-4-sulfonamide] | ≤ 0.4 µM | < 0.4 µM | 
Cn1ncc2cccc(NS(=O)(=O)c3cnn(-c4cc(C5(O)CC(C)(C)C5)ccn4)c3)c21 [Compound I-477, 1-(4-(1-hydroxy-3,3-dimethylcyclobutyl)pyridin-2-yl)-N-(1-methyl-1H-indazol-7-yl)-1H-pyrazole-4-sulfonamide] | > 2.5 µM | < 0.4 µM | 
COC1(c2ccnc(-n3cc(S(=O)(=O)Nc4cccc5cnn(C)c45)cn3)c2)CC(C)(C)C1 [Compound I-478, 1-(4-(1-methoxy-3,3-dimethylcyclobutyl)pyridin-2-yl)-N-(1-methyl-1H-indazol-7-yl)-1H-pyrazole-4-sulfonamide] | > 2.5 µM | < 0.4 µM | 
